Converted amounts (≈) assume the structure as drawn.

Format in all cases: cell-based
The test system of assay [1] is Curtobacterium sp. MMLR14_014. Briefly: Antibacterial susceptibility testing. The conditions noted are these: strains of Curtobacterium commonly present in soils and on plants. As to the method:
(§1) Antimicrobial Assays. […] Susceptibility testing was performed using the microbroth dilution method in 96 round-well microtiter plates as previously described [A20]. Compounds were prepared as 50× of stocks (10 Mm) by dissolving in Di H2O. All bacterial strains were grown and assayed M9 glucose media (with amendments added as required), and yeast strains in YMM. Controls wells contained 200 µM kanamycin (for bacteria) or nystatin (for yeasts), no compound addition (vehicle only), and no cell addition (added media instead). Culture densities (OD600) were recorded using a Bio-Rad xMark microplate spectrophotometer after 16 hours for all strains except bacilli, which were recorded after 24 hours. […] MICs values are from triplicate assays performed on separate days. Disk diffusion assays were used to assess antimicrobial activity of the purified compounds against filamentous fungi and against Mycobacterium smegmatis [A20].

Assay [2] relates to Pantoea ananatis LMG 20103. Briefly: Microbroth dilution MIC. As to the method: (§2) Antimicrobial Assays. Susceptibility testing was performed using the microbroth dilution method in 96 round-well microtiter plates following the general guidelines described by the Clinical and Laboratory Standards Institute (CLSI). Compounds were prepared as 50λ of stocks (10 mM) by dissolving in dI H2O. All bacterial strains were grown and assayed in Mueller-Hinton and M9 glucose media (with amendments added as required), and yeast strains in YMM. Overnight cultures were inoculated into 3 mL of fresh growth media following a 1:100 dilution. Upon mid-exponential growth (OD600 0.4-0.6), cultures were diluted to 5×10^6 CFU mL-1 (based on previously determined calibration curves) and used as inoculum into assay plates. Wells contained 100 μL of media with 5×10^5 CFU mL-1 of test organism, and serial ½-dilutions of the test compound (starting with 200 μM). E. coli WM6242 was assayed with induction of the phosphonic acid uptake system including 1 mM IPTG in assay wells. Controls wells contained 200 µM kanamycin (for bacteria) or nystatin (for yeasts), no compound addition (vehicle only), and no cell addition (added media instead). Microtiter plates were incubated with shaking (220 rpm) at their respective growth temperatures. Culture densities (OD600) were recorded using a Bio-Rad xMark microplate spectrophotometer after 16 hours for all strains except Bacillus, which were after 24 hours. Assays were performed in triplicated on separate independent days. […] Minimum inhibitory concentrations are from triplicate assays performed on separate days.
as §1

The subject of a further assay is Escherichia coli K12. Description: Microbroth dilution MIC. To be noted: for MIC: Escherichia coli K12. The method, then:
as §2, §1

For the next assay, the system named is Salmonella enterica LT2. Briefly: Microbroth dilution MIC. The conditions noted are these: for MIC: Salmonella enterica LT2. As to the method:
as §2, §1

For assay [3], the system named is Citrobacter freundii ATCC 8090. Briefly: Microbroth dilution MIC. The method, then: as §2, §1
Another assay concerns Rhodococcus jostii RHA1. Description: Microbroth dilution MIC. The method, then:
as §2, §1

Assay [4] has as its system Pseudomonas aeruginosa PA01. Description: Microbroth dilution MIC. The method, then: as §2, §1
The subject of assay [5] is Bacillus subtilis ATCC 6633. Briefly: Microbroth dilution MIC. The method, then:
as §2, §1

Assay [6] has as its system Erwinia rhapontici KSJ3948. Description: Microbroth dilution MIC. As to the method: as §2, §1
The next assay concerns Pseudomonas aeruginosa K. Description: Microbroth dilution MIC. The conditions noted are these: for MIC: Pseudomonas aeruginosa K. The method, then:
as §2, §1

In assay [7] the test system is Bacillus megaterium ATCC 19213. Briefly: Microbroth dilution MIC. As to the method:
as §2, §1

For assay [8], the system named is Serratia marcescens NRRL B-2544. Briefly: Microbroth dilution MIC. The conditions noted are these: for MIC: Serratia marcescens NRRL B-2544. The method, then: as §2, §1
For assay [9], the system named is Enterobacter aerogenes CDC 1998-68. Description: Microbroth dilution MIC. As to the method:
as §2, §1

Assay [10] deals with Staphylococcus aureus ATCC 23055. Description: Microbroth dilution MIC. The method, then: as §2, §1
Assay [11] deals with Acinetobacter calcoaceticus ATCC 23055. Description: Microbroth dilution MIC. As to the method: as §2, §1
Assay [12] concerns Escherichia coli WM6242 (Pn Uptake Induced). Description: Microbroth dilution MIC, phosphonate uptake induced with 1 mM IPTG. As to the method: (§3) Antimicrobial Assays. […] Compounds were prepared as 50λ of stocks (10 mM) by dissolving in dI H2O. […] Overnight cultures were inoculated into 3 mL of fresh growth media following a 1:100 dilution. Upon mid-exponential growth (OD600 0.4-0.6), cultures were diluted to 5×10^6 CFU mL-1 (based on previously determined calibration curves) and used as inoculum into assay plates. Wells contained 100 μL of media with 5×10^5 CFU mL-1 of test organism, and serial ½-dilutions of the test compound (starting with 200 μM). E. coli WM6242 was assayed with induction of the phosphonic acid uptake system including 1 mM IPTG in assay wells. […] Microtiter plates were incubated with shaking (220 rpm) at their respective growth temperatures. […] Assays were performed in triplicated on separate independent days. […] Minimum inhibitory concentrations are from triplicate assays performed on separate days.

Assay [13] concerns yeast, and filamentous fungi. Briefly: Antifungal activity: microbroth dilution (yeasts) and disk diffusion (filamentous fungi). To be noted: panel of yeast and filamentous fungi (Table 12). The method, then:
Antimicrobial Assays. Susceptibility testing was performed using the microbroth dilution method in 96 round-well microtiter plates following the general guidelines described by the Clinical and Laboratory Standards Institute (CLSI). Compounds were prepared as 50λ of stocks (10 mM) by dissolving in dI H2O. All bacterial strains were grown and assayed in Mueller-Hinton and M9 glucose media (with amendments added as required), and yeast strains in YMM. Overnight cultures were inoculated into 3 mL of fresh growth media following a 1:100 dilution. Upon mid-exponential growth (OD600 0.4-0.6), cultures were diluted to 5×10^6 CFU mL-1 (based on previously determined calibration curves) and used as inoculum into assay plates. Wells contained 100 μL of media with 5×10^5 CFU mL-1 of test organism, and serial ½-dilutions of the test compound (starting with 200 μM). E. coli WM6242 was assayed with induction of the phosphonic acid uptake system including 1 mM IPTG in assay wells. […] Culture densities (OD600) were recorded using a Bio-Rad xMark microplate spectrophotometer after 16 hours for all strains except Bacillus, which were after 24 hours. […]
Antimicrobial Assays. […] Culture densities (OD600) were recorded using a Bio-Rad xMark microplate spectrophotometer after 16 hours for all strains except bacilli, which were recorded after 24 hours. […]

The subject of assay [14] is Salmonella enterica ser. Tennessee E2007000304. Briefly: Microbroth dilution MIC. The conditions noted are these: Table 13, minimal media. As to the method:
as §1

Assay [15] relates to Acidovorax konjacii ATCC 33996. Briefly: Microbroth dilution MIC. The conditions noted are these: Table 13, minimal media. As to the method: as §1
In assay [16] the test system is Acidovorax citrulli ATCC 29625. Description: Microbroth dilution MIC. The conditions noted are these: Paracidovorax citrulli, ATCC29625, Table 13, minimal media. The method, then:
as §1

Assay [17] has as its system Acidovroax delafieldii ATCC 17505. Description: Microbroth dilution MIC. The conditions noted are these: Table 13, minimal media. As to the method:
as §1

Assay [18] deals with Salmonella enterica ser. Livingstone 1236H. Briefly: Microbroth dilution MIC. The method, then:
as §1

The subject of assay [19] is Acidovorax avenae ATCC 19860. Description: Microbroth dilution MIC. To be noted: Paracidovorax avenae, ATCC19860, Table 13, minimal media. The method, then: as §1
Assay [20] deals with Pseudomonas medocina Palleroni ATCC 25411. Briefly: Microbroth dilution MIC. To be noted: ATCC25411, Table 13, minimal media. The method, then:
as §1

Assay [21] concerns Pseudomonas syringae pv. Tomato Max 14. Description: Microbroth dilution MIC. To be noted: Table 13, minimal media. As to the method: as §1
Assay [22] concerns Pseudomonas fluorescens Pf5. Description: Microbroth dilution MIC. The conditions noted are these: Table 13, minimal media. As to the method:
as §1

For assay [23], the system named is Acidovorax temperans ATCC 49665. Briefly: Microbroth dilution MIC. The conditions noted are these: ATCC49665, Table 13, minimal media. The method, then: as §1
Another assay has as its system Escherichia coli WM6242. Description: Microbroth dilution MIC. To be noted: Table 2 (MIC90), triplicate. As to the method: as §3
The subject of assay [24] is Pseudomonas syringae B278a. Briefly: microbe, parasite or virus in culture. The conditions noted are these: Table 13, minimal media. The method, then:
as §1

Setting [25] is: Table 13, minimal media, ≥90% growth inhibition.
Where [26] appears, read: Table 2 (MIC90), microbroth dilution, triplicate.
Where [27] appears, read: ATCC23055, Table 2 (MIC90), microbroth dilution, triplicate.

Take `CC(N)C(=O)NC(CP(=O)(O)O)C(=O)O` (stereo not drawn) [Compound 2]: in [1], the “inhibition (in words)” value was “Neither compound inhibited”. Further, the MIC in assay [2] (LMG20103, Table 2 (MIC90), microbroth dilution, triplicate) was 100 µM (≈ 24 µg/mL); in assay [2] (setting [25]) it was 100 µM (≈ 24 µg/mL); against Escherichia coli K12 (setting [26]) it was > 200 µM; against Escherichia coli K12 (setting [25]) it was >200 µM; against Salmonella enterica LT2 (setting [26]), > 200 µM; against Salmonella enterica LT2 (setting [25]), >200 µM. In addition, the MIC in assay [3] (ATCC8090, Table 2 (MIC90), microbroth dilution, triplicate) was > 200 µM; in assay [3] (setting [25]), >200 µM; in the assay with Rhodococcus jostii RHA1 (setting [26]) it was > 200 µM; in the assay with Rhodococcus jostii RHA1 (Table 13, minimal media), >200 µM; in [4] (setting [26]), > 200 µM; in assay [4] (Table 13, minimal media) it was >200 µM. Moreover, the MIC was 200 µM (≈ 48 µg/mL) in assay [5] (ATCC6633, Table 2 (MIC90), microbroth dilution, triplicate); 200 µM (≈ 48 µg/mL) in assay [5] (Table 13, minimal media); > 200 µM in assay [6] (KSJ3948, Table 2 (MIC90), Erwinia rhapontici KSJ, microbroth dilution, triplicate); >200 µM in assay [6] (Table 13, Erwinia rhapontici KSJ3948, minimal media, ≥90% growth inhibition); > 200 µM against Pseudomonas aeruginosa K (setting [26]); >200 µM in the assay with Pseudomonas aeruginosa K (Table 13, minimal media). Moreover, the MIC was 12.5 µM (≈ 3 µg/mL) in assay [7] (Priestia megaterium, ATCC19213, Table 2 (MIC90), microbroth dilution, triplicate); 12.5 µM (≈ 3 µg/mL) in [7] (Table 13, minimal media); > 200 µM in assay [8] (NRRLB2544, Table 2 (MIC90), microbroth dilution, triplicate); >200 µM in assay [8] (Table 13, minimal media); > 200 µM in assay [9] (Klebsiella aerogenes, CDC199868, Table 2 (MIC90), microbroth dilution, triplicate); >200 µM in assay [9] (setting [25]). Further, the MIC in assay [10] (setting [27]) was > 200 µM; in [10] (Table 13, minimal media), >200 µM; in assay [11] (setting [27]), > 200 µM; in [11] (Table 13, minimal media), >200 µM; in assay [12], > 200 µM; in assay [14], > 200 µM. Besides, the MIC in assay [15], in [16], in assay [17], in [18], in assay [19] and in [20] was > 200 µM each time. In addition, the MIC (in assay [21]; in assay [22]; in [23]; in the assay with Escherichia coli WM6242; in assay [24]) was > 200 µM throughout. Besides, in assay [13], the “antifungal activity (in words)” value was “neither compound exhibited antifungal activity”.
In the case of `CC(N)C(=O)NC(C)C(=O)NC(CP(=O)(O)O)C(=O)O` (stereo not drawn) [Compound 3], in assay [1], the “inhibition (in words)” value was “Neither compound inhibited”. Besides, the “inhibitory activity compared with phosphonoalamide A (previously measured)” value in the assay on Escherichia coli K12 (E. coli K12, i.e. lower MICs) is recorded as “greater inhibitory activity”; in the assay with Salmonella enterica LT2 (S. enterica LT2, i.e. lower MICs), “greater inhibitory activity”; in the assay with Pseudomonas aeruginosa K (P. aeuroginosa K, i.e. lower MICs), “greater inhibitory activity”; in [8] (S. marcescens B-2544, i.e. lower MICs), “greater inhibitory activity”.

Values taken from patent publication US20250325569A1, “COMPOSITIONS AND METHODS OF MAKING AND USE THEREOF” (Ohio State Innovation Foundation, priority 2022, published 2025).
